Assay results taken from ChEMBL document CHEMBL1130847, “Synthesis and pharmacology of N-alkylated derivatives of the excitotoxin ibotenic acid” (Bioorg Med Chem Lett, 1998).

Legend:
Rattus norvegicus = organism: Rattus norvegicus; assay: Evaluated for effective concentration in, in vitro electrophysiological model in the rat cortical slice model.; assay type: functional
[1] = target: Metabotropic glutamate receptor 1 (Rattus norvegicus, UniProt P23385); assay: Compound was evaluated for agonistic activity against mGluR1 alpha metabotropic receptor subtype in rat cortical slice model; assay type: functional
Chain of Metabotropic glutamate receptor 1 (P23385 whole entry): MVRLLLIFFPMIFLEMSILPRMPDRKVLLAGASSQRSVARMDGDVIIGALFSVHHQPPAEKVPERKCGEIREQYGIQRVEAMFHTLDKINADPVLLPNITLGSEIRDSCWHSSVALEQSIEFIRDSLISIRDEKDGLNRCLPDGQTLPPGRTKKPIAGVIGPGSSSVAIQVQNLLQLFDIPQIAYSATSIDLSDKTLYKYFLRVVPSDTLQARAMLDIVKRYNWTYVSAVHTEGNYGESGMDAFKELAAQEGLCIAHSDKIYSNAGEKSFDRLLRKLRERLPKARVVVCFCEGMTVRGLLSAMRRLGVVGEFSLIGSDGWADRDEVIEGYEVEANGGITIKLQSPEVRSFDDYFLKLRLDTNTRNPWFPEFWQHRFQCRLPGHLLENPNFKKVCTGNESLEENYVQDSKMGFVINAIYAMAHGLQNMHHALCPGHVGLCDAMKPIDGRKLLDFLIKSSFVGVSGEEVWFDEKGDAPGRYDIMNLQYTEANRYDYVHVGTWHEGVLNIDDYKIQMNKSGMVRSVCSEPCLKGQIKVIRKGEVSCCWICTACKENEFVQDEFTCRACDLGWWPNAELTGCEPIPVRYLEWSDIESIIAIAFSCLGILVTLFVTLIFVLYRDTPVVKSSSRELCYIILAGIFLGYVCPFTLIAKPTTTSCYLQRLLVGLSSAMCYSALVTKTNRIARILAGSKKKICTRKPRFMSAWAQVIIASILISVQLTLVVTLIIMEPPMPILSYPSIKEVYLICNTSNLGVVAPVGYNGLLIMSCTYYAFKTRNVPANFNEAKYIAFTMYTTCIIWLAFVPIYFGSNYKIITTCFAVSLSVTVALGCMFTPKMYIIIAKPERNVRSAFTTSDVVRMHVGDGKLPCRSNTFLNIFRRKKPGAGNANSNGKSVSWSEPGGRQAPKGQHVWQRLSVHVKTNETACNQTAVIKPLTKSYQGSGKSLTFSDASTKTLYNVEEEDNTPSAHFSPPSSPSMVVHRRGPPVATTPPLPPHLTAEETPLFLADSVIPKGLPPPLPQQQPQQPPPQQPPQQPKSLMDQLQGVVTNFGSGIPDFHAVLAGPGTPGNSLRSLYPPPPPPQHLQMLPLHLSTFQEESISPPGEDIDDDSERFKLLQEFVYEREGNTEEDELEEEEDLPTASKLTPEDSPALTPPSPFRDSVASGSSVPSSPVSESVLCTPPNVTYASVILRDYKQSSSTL

SMILES | EC50 (Rattus norvegicus) | EC50 [1]
CNC(C(=O)O)c1cc(O)no1 (stereo not given) | 140 µM | > 1000 µM
O=C(O)C(NCc1ccccc1)c1cc(O)no1 (stereo not given) | > 1000 µM | > 1000 µM
Cc1onc(O)c1C(N)C(=O)O (stereo not given) | 12 µM | > 1000 µM
NC(C(=O)O)c1cc(O)no1 (stereo not given) | 9.6 µM | 43 µM
CCNC(C(=O)O)c1cc(O)no1 (stereo not given) | 320 µM | > 1000 µM
